Assay results: patent US9107411B2, “Indolecarboxamides and benzimidazolecarboxamides as insecticides and acaricides” (BAYER INTELLECTUAL PROPERTY GMBH, priority 2011, dated 2015)

Key:
Ctenocephalides felis = Ctenocephalides felis oral (CTECFE); type: in vivo; details: application rate 100 ppm in citrated cattle blood; after 2 days
Method in brief: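 Readout is percent mortality after 2 days (0–100%) in roughly 20 unfed adult fleas. The fleas had imbibed citrated cattle blood dosed with compound through Parafilm, with the compound diluted from a DMSO concentrate.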

Myzus persicae = experiment: Myzus test (MYZUPE spray treatment); type: in vivo; details: Chinese cabbage leaf discs, after 6 days
Method: Myzus Test (MYZUPE Spray Treatment) Solvent: 78 parts by weight of acetone • • 1.5 parts by weight of dimethylformamide Emulsifier: 0.5 part by weight of alkylaryl polyglycol ether To produce an appropriate active ingredient formulation, 1 part by weight of active ingredient is mixed with the stated amounts of solvent and emulsifier, and the concentrate is diluted with emulsifier-containing water to the desired concentration. Leaf discs of Chinese cabbage (Brassica pekinensis) infested by all stages of the green peach aphid (Myzus persicae) are sprayed with an active ingredient formulation of the desired concentration. After 6 days, the efficacy in % is determined. 100% means that all of the aphids have been killed; 0% means that none of the aphids have been killed.

Lucilia cuprina larvae = experiment: Lucilia cuprina test (LUCICU); type: in vivo; details: application rate 100 ppm; treated horse meat; after 2 days
Method in brief: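 Mortality scored as percent of larvae killed 2 days after exposure. Horse meat was treated with the compound, formulated from DMSO stock diluted with water to the test concentration, and populated with roughly 20 larvae.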

Boophilus microplus = Boophilus microplus test (BOOPMI injection); type: in vivo; details: application rate 20 μg/animal; injected into the abdomen; after 7 days
Method in brief: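 Read-out after 7 days is % efficacy, judged by fertile egg laying, with 100% meaning no fertile eggs from any tick. Compound was given by abdominal injection as a DMSO solution diluted to the desired concentration. Treated ticks were held in dishes in a climate-controlled room.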

adult Musca domestica = experiment: Musca domestica test (MUSCDO); type: in vivo; details: application rate 100 ppm; treated sponge; after 2 days
Method in brief: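 After 2 days' exposure to a treated sponge, adult house fly mortality was recorded as kill %. Formulation: active ingredient in dimethyl sulphoxide, then water dilution to the test concentration.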

Phaedon cochleariae = experiment: Phaedon test (PHAECO spray treatment); type: in vivo; details: Chinese cabbage leaf discs, after 7 days
Method in brief: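 Larval mortality was assessed 7 days after Phaedon cochleariae larvae were placed on dried, spray-treated Brassica pekinensis leaf discs. The formulation was an acetone/dimethylformamide concentrate with alkylaryl polyglycol ether emulsifier, diluted in emulsifier-containing water. Results are given as % kill, from 0 (no larvae dead) to 100 (all dead).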

logP (HPLC-MS) = type: physicochemical; details: HPLC, reversed-phase column (C18), 43° C.
Tetranychus urticae = experiment: Tetranychus test, OP-resistant (TETRUR spray treatment); type: in vivo; details: bean leaf discs, after 6 days
Method in brief: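 Bean leaf discs infested with all stages of OP-resistant T. urticae sprayed with compound formulated in acetone/DMF plus alkylaryl polyglycol ether emulsifier, diluted in water. Efficacy (% mites killed) scored after 6 days.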

Spodoptera frugiperda = Spodoptera frugiperda test (SPODFR spray treatment); type: in vivo; details: maize leaf discs, after 7 days
Method in brief: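 Mortality read-out at 7 days, given as % efficacy, where 100% means every caterpillar dead and 0% none. Caterpillars were placed on dried maize leaf discs that had been sprayed with test formulation. That formulation was an acetone/dimethylformamide concentrate diluted in emulsifier-containing water.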

[1] = tested on: adult engorged Boophilus microplus females of the SP-resistant Parkhurst strain; experiment: Boophilus microplus test (DIP); type: in vivo; details: application rate 100 ppm, after 7 days
Method: Boophilus microplus Test (DIP)
Test animals: adult engorged Boophilus microplus females of the SP-resistant Parkhurst strain
Solvent: dimethyl sulphoxide
10 mg of active ingredient are dissolved in 0.5 ml of dimethyl sulphoxide. For the purpose of preparing a suitable formulation, the active ingredient solution is diluted with water to the concentration desired in each case.
This active ingredient formulation is pipetted into tubes. 8-10 ticks are transferred into a further tube with holes. The tube is immersed into the active ingredient formulation, and all ticks are completely wetted. After the liquid has run out, the ticks are transferred onto filter discs in plastic dishes and stored in a climate-controlled room.
The activity is assessed after 7 days by laying of fertile eggs. Eggs whose fertility is not outwardly visible are stored in glass tubes in a climate-controlled cabinet until the larvae hatch. An efficacy of 100% means that none of the ticks has laid any fertile eggs.

Amblyomma hebraeum = experiment: Amblyomma hebaraeum test (AMBYHE); type: in vivo; details: application rate 100 ppm; tick nymphs immersed one minute; after 42 days
Method: Amblyomma hebaraeum Test (AMBYHE) Solvent: dimethyl sulphoxide To prepare an appropriate active ingredient formulation, 10 mg of active ingredient are mixed with 0.5 ml of dimethyl sulphoxide and the concentrate is diluted with water to the desired concentration. Tick nymphs (Amblyomma hebraeum) are placed into perforated plastic beakers and immersed in the desired concentration for one minute. The ticks are transferred on filter paper into a Petri dish and stored in a climate-controlled cabinet. After 42 days, the kill in % is determined 100% means that all of the ticks have been killed; 0% means that none of the ticks have been killed.

[2] = acidic range pH 2.7, EEC directive 79/831 Annex V.A8, two values = both regioisomers (G = N)
[3] = acidic range pH 2.7, acetonitrile (0.1% formic acid)/water gradient, calibration with unbranched alkan-2-ones

log p (logP (HPLC-MS); [2]) | log p (logP (HPLC-MS); [3]) | Structure (SMILES) | efficacy (kill in %) (Ctenocephalides felis) [%] | efficacy in % (Myzus persicae; application rate 100 g/ha) [%] | efficacy (kill in %) (Lucilia cuprina larvae) [%] | efficacy (laying of fertile eggs) (Boophilus microplus) [%] | efficacy (kill in %) (adult Musca domestica) [%] | efficacy in % (Phaedon cochleariae; application rate 100 g/ha) [%] | efficacy in % (Tetranychus urticae; application rate 100 g/ha) [%] | efficacy in % (Spodoptera frugiperda; application rate 100 g/ha) [%] | efficacy in % (Myzus persicae; application rate 500 g/ha) [%] | efficacy in % (Phaedon cochleariae; application rate 500 g/ha) [%] | efficacy in % (Tetranychus urticae; application rate 500 g/ha) [%] | efficacy in % (Spodoptera frugiperda; application rate 500 g/ha) [%] | efficacy (laying of fertile eggs) [1] [%] | efficacy (kill in %) (Amblyomma hebraeum) [%]
3.98 |  | CCc1cc2c(cc1C(=O)NC1(C#N)CC1)cc(C(=O)NC(c1cccc(C(F)(F)F)c1)C(F)(F)F)n2CC (centres unmarked) [Compound 282] | 100 | 80 | 100 | 100 | 90 | 100 | 100 | 100 |  |  |  |  |  | 
 | 3.82 | CCn1c(C(=O)NC(c2ccc(F)c(Br)c2)C(F)(F)F)cc2cc(C(=O)NC3CC3)c(Cl)cc21 (centres unmarked) [Compound 12] | 100 | 90 | 100 | 100 | 100 | 100 | 100 | 100 |  |  |  |  |  | 
 | 3.48 | CCn1c(C(=O)NC(c2cccc(OC(F)F)c2)C(F)(F)F)cc2cc(C(=O)NC3CC3)c(Cl)cc21 (centres unmarked) [Compound 276] | 100 | 90 | 100 | 100 | 100 | 100 | 90 | 100 |  |  |  |  |  | 
 | 3.71 | CCn1c(C(=O)NC(c2ccc(F)c(C(F)(F)F)c2)C(F)(F)F)nc2cc(C(=O)NC3CC3)c(Cl)cc21 (centres unmarked) [Compound 38] | 100 | 100 | 100 | 100 | 100 |  |  |  | 90 | 100 | 100 | 100 |  | 
 | 3.71 | CCn1c(C(=O)NC(c2ccc(F)c(Br)c2)C(F)(F)F)cc2cc(C(=O)NC3(C#N)CC3)c(C)cc21 (centres unmarked) [Compound 191] | 100 | 90 | 100 | 100 | 90 | 100 | 100 | 100 |  |  |  |  |  | 
 | 3.62 | C#CCn1c(C(=O)NC(c2ccc(F)c(C(F)(F)F)c2)C(F)(F)F)nc2cc(C(=O)NC3CC3)c(Cl)cc21 (centres unmarked) [Compound 97] | 95 | 100 | 100 | 100 | 100 |  |  |  |  | 100 | 100 | 100 |  | 
 | 3.82 | CCn1c(C(=O)NC(c2ccc(F)c(Cl)c2)C(F)(F)F)cc2cc(C(=O)NC3CC3)c(Cl)cc21 (centres unmarked) [Compound 18] | 100 |  | 100 | 100 | 100 | 100 | 90 | 100 |  |  |  |  | 80 | 
 | 3.52 | C#CCn1c(C(=O)NC(c2ccc(F)c(Br)c2)C(F)(F)F)cc2cc(C(=O)NC3CC3)c(Cl)cc21 (centres unmarked) [Compound 14] | 100 |  | 100 | 100 | 100 |  |  |  |  | 100 | 100 | 100 |  | 100
 | 3.71 | CCn1c(C(=O)NC(c2cccc(Br)c2)C(F)(F)F)cc2cc(C(=O)NC3CC3)c(Cl)cc21 (centres unmarked) [Compound 40] | 100 | 90 | 100 | 100 |  | 100 | 100 | 100 |  |  |  |  |  | 
 | 3.59 | CCn1c(C(=O)NC(c2ccc(F)c(Cl)c2)C(F)(F)F)nc2cc(C(=O)NC3CC3)c(Cl)cc21 (centres unmarked) [Compound 37] | 100 |  | 100 | 100 | 100 |  |  |  | 90 | 100 | 100 | 100 |  | 
3.40 |  | CCn1c(C(=O)NC(c2ccc(F)c(F)c2)C(F)(F)F)cc2cc(C(=O)NC3CC3)c(C)cc21 (centres unmarked) [Compound 295] |  | 90 |  |  |  | 100 | 100 | 100 |  |  |  |  |  | 
3.38 |  | O=C(NC1CC1)c1cc2nc(C(=O)NC(c3ccc(F)c(C(F)(F)F)c3)C(F)(F)F)n(C3CC3)c2cc1Cl (centres unmarked) [Compound 313] |  |  |  |  |  |  |  |  | 90 | 100 | 90 | 100 |  | 
 | 3.65 | CCn1c(C(=O)NC(c2ccc(F)c(Cl)c2)C(F)(F)F)cc2cc(C(=O)NC3CC3)c(C)cc21 (centres unmarked) [Compound 192] | 100 | 90 | 100 | 100 | 100 | 100 | 100 | 100 |  |  |  |  |  | 
 | 3.52 | Cn1c(C(=O)NC(c2ccc(F)c(Cl)c2)C(F)(F)F)cc2cc(C(=O)NC3(C#N)CC3)c(Cl)cc21 (centres unmarked) [Compound 54] | 100 | 100 | 100 | 100 | 100 | 100 | 100 | 100 |  |  |  |  |  | 
 | 3.48 | C#CCn1c(C(=O)NC(c2cccc(C(F)(F)F)c2)C(F)(F)F)cc2cc(C(=O)NC3(C#N)CC3)c(C)cc21 (centres unmarked) [Compound 209] |  | 90 |  |  |  | 100 | 100 | 100 |  |  |  |  |  | 
4.43 |  | CCn1c(C(=O)NC(c2cc(Cl)c(Cl)c(Cl)c2)C(F)(F)F)cc2cc(C(=O)NC3(C#N)CC3)c(C)cc21 (centres unmarked) [Compound 289] |  |  |  |  |  | 100 | 100 | 100 | 100 |  |  |  |  | 
